Assay results as given in patent US11591341B2 (ALIGOS THERAPEUTICS, INC., priority 2019, dated 2023).

System: HBV
Assay: HBV-DNA Antiviral Assay Using HepG2.117 Cells (intracellular HBV DNA by qPCR)
Assay type: cell-based, hepatitis B virus (genotype D)
Details: Hepatitis B virus, HepG2.117
Outline: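 Endpoint: qPCR copy number of intracellular HBV DNA after 3-day compound exposure, with inhibition set relative to the 2% DMSO control. The cells were doxycycline-free HepG2.117 carrying a Tet-off genotype D genome, dosed at nine 4-fold dilutions. A duplicate plate gave ATP-based viability (CC50).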

| Compound | EC50 |
| --- | --- |
| COc1ccc(-n2c(C(=O)NCc3ccncc3)c3n(c2=O)CCN(C(=O)c2ccc(Cl)c(Cl)c2)C3)cc1 [Example 57, 7-(3,4-dichlorobenzoyl)-2-(4-methoxyphenyl)-3-oxo-N-(4-pyridylmethyl)-6,8-dihydro-5H-imidazo[1,5-a]pyrazine-1-carboxamide] | > 5 µM |
| COc1ccc(-n2c(C(=O)NCC(C)C)c3n(c2=O)CCN(C(=O)c2ccc(Cl)c(Cl)c2)C3)cc1 [Example 58, 7-(3,4-dichlorobenzoyl)-N-isobutyl-2-(4-methoxyphenyl)-3-oxo-6,8-dihydro-5H-imidazo[1,5-a]pyrazine-1-carboxamide] | > 5 µM |
| COc1ccc(-n2c(C(=O)NCc3ccccc3)c3n(c2=O)CCN(C(=O)c2ccc(Cl)c(Cl)c2)C3)c(Cl)c1 [Example 59, N-benzyl-2-(2-chloro-4-methoxy-phenyl)-7-(3,4-dichlorobenzoyl)-3-oxo-6,8-dihydro-5H-imidazo[1,5-a]pyrazine-1-carboxamide] | 0.5 to 5 µM |
| COc1ccc(-n2c(C(=O)NCc3ccc(F)cc3)c3n(c2=O)CCN(C(=O)c2ccc(Br)c(Cl)c2)C3)cc1 [Example 60, 7-(4-bromo-3-chloro-benzoyl)-N-[(4-fluorophenyl)methyl]-2-(4-methoxyphenyl)-3-oxo-6,8-dihydro-5H-imidazo[1,5-a]pyrazine-1-carboxamide] | 0.1 to 0.5 µM |
| COc1ccc(-n2c(C(=O)NCc3ccc(F)cc3)c3n(c2=O)CCN(C(=O)c2ccc(Cl)c(Cl)c2)C3)cc1 [Example 61, 7-(3,4-dichlorobenzoyl)-N-[(4-fluorophenyl)methyl]-2-(4-methoxyphenyl)-3-oxo-6,8-dihydro-5H-imidazo[1,5-a]pyrazine-1-carboxamide] | 0.5 to 5 µM |
| COc1ccc(-n2c(C(=O)NCc3cccc(C#N)c3)c3n(c2=O)CCN(C(=O)c2ccc(Br)c(Cl)c2)C3)cc1 [Example 62, 7-(4-bromo-3-chloro-benzoyl)-N-[(3-cyanophenyl)methyl]-2-(4-methoxyphenyl)-3-oxo-6,8-dihydro-5H-imidazo[1,5-a]pyrazine-1-carboxamide] | 0.5 to 5 µM |
| COc1ccc(-n2c(C(=O)NCc3cccc(C#N)c3)c3n(c2=O)CCN(C(=O)c2ccc(Cl)c(Cl)c2)C3)cc1 [Example 63, N-[(3-cyanophenyl)methyl]-7-(3,4-dichlorobenzoyl)-2-(4-methoxyphenyl)-3-oxo-6,8-dihydro-5H-imidazo[1,5-a]pyrazine-1-carboxamide] | 0.5 to 5 µM |
| COc1ccc(-n2c(C(=O)NCc3cccnc3)c3n(c2=O)CCN(C(=O)c2ccc(Cl)c(Cl)c2)C3)cc1 [Example 64, 7-(3,4-dichlorobenzoyl)-2-(4-methoxyphenyl)-3-oxo-N-(3-pyridylmethyl)-6,8-dihydro-5H-imidazo[1,5-a]pyrazine-1-carboxamide] | > 5 µM |
| COc1ccc(-n2c(C(=O)NCc3ccc4occc4c3)c3n(c2=O)CCN(C(=O)c2ccc(Cl)c(Cl)c2)C3)cc1 [Example 66, N-(benzofuran-5-ylmethyl)-7-(3,4-dichlorobenzoyl)-2-(4-methoxyphenyl)-3-oxo-6,8-dihydro-5H-imidazo[1,5-a]pyrazine-1-carboxamide] | 0.5 to 5 µM |
| COc1ccc(-n2c(C(=O)NCc3ccc4oc(C)nc4c3)c3n(c2=O)CCN(C(=O)c2ccc(Cl)c(Cl)c2)C3)cc1 [Example 67, 7-(3,4-dichlorobenozyl)-2-(4-methoxyphenyl)-N-[(2-methyl-1,3-benzoxazol-5-yl)methyl]-3-oxo-6,8-dihydro-5H-imidazo[1,5-a]pyrazine-1-carboxamide] | 0.5 to 5 µM |
| NS(=O)(=O)c1ccc(-n2c(C(=O)NCc3ccccc3)c3n(c2=O)CCN(C(=O)c2ccc(Br)c(Cl)c2)C3)cc1 [Example 71, N-benzyl-7-(4-bromo-3-chloro-benzoyl)-3-oxo-2-(4-sulfamoylphenyl)-6,8-dihydro-5H-imidazo[1,5-a]pyrazine-1-carboxamide] | > 5 µM |
| COc1ccc(-n2c(-c3ccccc3)c3n(c2=O)CCN(C(=O)c2ccc(Cl)c(Cl)c2)C3)cc1 [Example 74, 7-(3,4-dichlorobenzoyl)-2-(4-methoxyphenyl)-1-phenyl-6,8-dihydro-5H-imidazo[1,5-a]pyrazin-3-one] | > 5 µM |
| O=C(NCc1ccccc1)c1c2n(c(=O)n1-c1ccccn1)CCN(C(=O)c1ccc(Cl)c(Cl)c1)C2 [Example 78, N-benzyl-7-(3,4-dichlorobenzoyl)-3-oxo-2-(2-pyridyl)-6,8-dihydro-5H-imdiazo[1,5-a]pyrazine-1-carboxamide] | > 5 µM |
| COc1ccc(-n2c(C(=O)NCc3ccccc3)c3n(c2=O)CCN(C(=O)c2ccc(Cl)c(Cl)c2)C3)c(F)c1 [Example 79, N-benzyl-7-(3,4-dichlorobenzoyl)-2-(2-fluoro-4-methoxy-phenyl)-3-oxo-6,8-dihydro-5H-imidazo[1,5-a]pyrazine-1-carboxamide] | 0.5 to 5 µM |
| COc1ccc(-n2c(C(=O)NCc3ccccc3)c3n(c2=O)CCN(C(=O)c2ccc(Cl)c(Cl)c2)C3)c(C#N)c1 [Example 80, N-benzyl-2-(2-cyano-4-methoxy-phenyl)-7-(3,4-dichlorobenzoyl)-3-oxo-6,8-dihydro-5H-imidazo[1,5-a]pyrazine-1-carboxamide] | > 5 µM |
| COc1ccc(-n2c(C(=O)Nc3ccccc3)c3n(c2=O)CCN(C(=O)c2ccc(Cl)c(Cl)c2)C3)cc1 [Example 83, 7-(3,4-dichlorobenzoyl)-2-(4-methoxyphenyl)-3-oxo-N-phenyl-6,8-dihydro-5H-imidazo[1,5-a]pyrazine-1-carboxamide] | > 5 µM |
| COc1ccc(-n2c(C(=O)NCc3ccc(C#N)cc3)c3n(c2=O)CCN(C(=O)c2ccc(Cl)c(Cl)c2)C3)cc1 [Example 84, N-[(4-cyanophenyl)methyl]-7-(3,4-dichlorobenzoyl)-2-(4-methoxyphenyl)-3-oxo-6,8-dihydro-5H-imidazo[1,5-a]pyrazine-1-carboxamide] | > 5 µM |
| COc1ccc(-n2c(C(=O)NCc3ccc(OC)cc3Cl)c3n(c2=O)CCN(C(=O)c2ccc(Cl)c(Cl)c2)C3)cc1 [Example 85, N-[(2-chloro-4-methoxy-phenyl)methyl]-7-(3,4-dichlorobenzoyl)-2-(4-methoxyphenyl)-3-oxo-6,8-dihydro-5H-imidazo[1,5-a]pyrazine-1-carboxamide] | 0.5 to 5 µM |
| COc1ccc(-n2c(-c3ncc(Cc4ccccc4)o3)c3n(c2=O)CCN(C(=O)c2ccc(Br)c(Cl)c2)C3)cc1 [Example 86] | 0.5 to 5 µM |
| COc1ccc(-n2c(C(=O)NCc3ccccc3)c3n(c2=O)CCN(C(=O)c2ccc(Cl)c(Cl)c2)C3)c(C)c1 [Example 87, N-benzyl-7-(3,4-dichlorobenzoyl)-2-(4-methoxy-2-methyl-phenyl)-3-oxo-6,8-dihydro-5H-imidazo[1,5-a]pyrazine-1-carboxamide] | > 5 µM |
| O=C(NCc1ccccc1)c1c2n(c(=O)n1-c1ccc3c(c1)OCO3)CCN(C(=O)c1ccc(Cl)c(Cl)c1)C2 [Example 88, 2-(1,3-benzodioxol-5-yl)-N-benzyl-7-(3,4-dichlorobenzoyl)-3-oxo-6,8-dihydro-5H-imidazo[1,5-a]pyrazine-1-carboxamide] | 0.5 to 5 µM |
| COc1ccc(-n2c(C(=O)NCc3ccc(OC)c(C)c3)c3n(c2=O)CCN(C(=O)c2ccc(Cl)c(Cl)c2)C3)cc1 [Example 89, 7-(3,4-dichlorobenzoyl)-N-[(4-methoxy-3-methyl-phenyl)methyl]-2-(4-methoxyphenyl)-3-oxo-6,8-dihydro-5H-imidazo[1,5-a]pyrazine-1-carboxamide] | 0.5 to 5 µM |
| COc1ccc(-n2c(C(=O)NCc3ccc(C)c(OC)c3)c3n(c2=O)CCN(C(=O)c2ccc(Cl)c(Cl)c2)C3)cc1 [Example 90, 7-(3,4-dichlorobenzoyl)-N-[(3-methoxy-4-methyl-phenyl)methyl]-2-(4-methoxyphenyl)-3-oxo-6,8-dihydro-5H-imidazo[1,5-a]pyrazine-1-carboxamide] | 0.5 to 5 µM |
| COc1ccc(-n2c(C(=O)NCc3ccc4c(c3)OCCO4)c3n(c2=O)CCN(C(=O)c2ccc(Cl)c(Cl)c2)C3)cc1 [Example 91, 7-(3,4-dichlorobenzoyl)-N-(2,3-dihydro-1,4-benzodioxin-6-ylmethyl)-2-(4-methoxyphenyl)-3-oxo-6,8-dihydro-5H-imidazo[1,5-a]pyrazine-1-carboxamide] | 0.5 to 5 µM |
| COc1ccc(-n2c(C(=O)NCc3ccc4ncccc4c3)c3n(c2=O)CCN(C(=O)c2ccc(Cl)c(Cl)c2)C3)cc1 [Example 92, 7-(3,4-dichlorobenzoyl)-2-(4-methoxyphenyl)-3-oxo-N-(6-quinolylmethyl)-6,8-dihydro-5H-imidazo[1,5-a]pyrazine-1-carboxamide] | 0.5 to 5 µM |
| COc1ccc(-n2c(C(=O)NCc3ccc4[nH]c(=O)[nH]c4c3)c3n(c2=O)CCN(C(=O)c2ccc(Cl)c(Cl)c2)C3)cc1 [Example 93, 7-(3,4-dichlorobenzoyl)-2-(4-methoxyphenyl)-3-oxo-N-[(2-oxo-1,3-dihydrobenzimidazol-5-yl)methyl]-6,8-dihydro-5H-imidazo[1,5-a]pyrazine-1-carboxamide] | > 5 µM |
| COc1cc(Cl)c(-n2c(C(=O)NCc3ccccc3)c3n(c2=O)CCN(C(=O)c2ccc(Cl)c(Cl)c2)C3)c(Cl)c1 [Example 96, N-benzyl-7-(3,4-dichlorobenzoyl)-2-(2,6-dichloro-4-methoxy-phenyl)-3-oxo-6,8-dihydro-5H-imidazo[1,5-a]pyrazine-1-carboxamide] | > 5 µM |
| COc1ccc(-n2c(C(=O)NCc3ccc(Cl)c(OC)c3)c3n(c2=O)CCN(C(=O)c2ccc(Br)c(Cl)c2)C3)cc1 [Example 101, 7-(4-bromo-3-chloro-benzoyl)-N-[(4-chloro-3-methoxy-phenyl)methyl]-2-(4-methoxyphenyl)-3-oxo-6,8-dihydro-5H-imidazo[1,5-a]pyrazine-1-carboxamide] | 0.5 to 5 µM |
| COc1ccc(-n2c(C(=O)NCc3ccc(Cl)c(OC)c3)c3n(c2=O)CCN(C(=O)c2ccc(Cl)c(Cl)c2)C3)cc1 [Example 102, N-[(4-chloro-3-methoxy-phenyl)methyl]-7-(3,4-dichlorobenzoyl)-2-(4-methoxyphenyl)-3-oxo-6,8-dihydro-5H-imidazo[1,5-a]pyrazine-1-carboxamide] | 0.5 to 5 µM |
